Measurements: article PMC6523531, “Mechanistic Studies on the Absorption-Enhancing Effects of Gemini Surfactant on the Intestinal Absorption of Poorly Absorbed Hydrophilic Drugs in Rats” (Pharmaceutics, 2019)

Assays:
[1] = system: Caco-2 cell monolayers; experiment: Transport of CF across Caco-2 cell monolayers; type: in vitro ADME, Human; details: 10 µM CF
Method: Caco-2 cells (passage 45) were cultured in 175-cm^2 culture flask (Thermo Fisher Scientific™, Waltham, MA, USA). The culture medium consisted of DMEM containing 10% FBS, 0.1 mM MEM–NEAA, 2 mM glutamine, 100 U/mL penicillin, and 100 µg/mL streptomycin [30]. Cells were cultured in a humidified atmosphere of 5% CO2 at 37 °C. The culture medium was changed every two days. When the cultured Caco-2 cells became sub-confluent, they were seeded onto 12-mm Transwell® with 0.4-µm pore polycarbonate membrane inserts (Corning Inc., New York, NY, USA) at a density of 1 × 10^5 cells/insert. The transepithelial transport studies were performed when the transepithelial electrical resistance (TEER) values were more than 500 Ω·cm^2 (i.e., after 21 days). Briefly, after removing the incubation medium by aspiration, the apical and basal sides were washed thrice by Hank’s Balanced Salt (HBSS) solution (pH 7.4). The cells were incubated in HBSS (pH 6.0) for the apical side and HBSS (pH 7.4) for the basal side for 20 min at 37 °C. HBSS supplemented with 1 mg/mL glucose was used in all cell culture experiments. […]
The TEER values were measured by Millicell® (ERS-2 Volt-Ohm Meter, Billerica, MA, USA) at the predetermined times up to 24 h, and the initial values were considered as 100%. […] CF was determined as previously mentioned. The apparent permeability coefficients Papp (cm/s) for the transported CF was determined by the following equation: Papp=dXR/dt×1/A×1/C0 where Papp is the apparent permeability coefficient in centimeters per second, XR is the amount of CF in moles in the receptor side, dXR/dt is the flux across the monolayer, A is the diffusion area (i.e., in square centimeters), and C0 is the initial concentration of CF in the donor side in moles per milliliter.

[2] = system: rat small intestines; experiment: In situ closed-loop enteric absorption of CF with absorption enhancers; type: in vivo; details: for Enhancement Ratio (AUC with enhancer/AUC control without enhancer): CF 0.5 mg/kg, rat small intestine
Method: The enteric absorption of CF was examined by an in situ closed-loop method, as reported previously. The experiments were carried out in accordance with the guidelines of the Animal Ethics Committee at Kyoto Pharmaceutical University. The protocols were approved by this Committee (permit number: 16-12-069, permit date: 14 April 2016). The rats were starved overnight for approx. 16 h pre-dosing, but water was freely available. After inducing anesthesia with sodium pentobarbital which was administered intraperitoneally at a dose of 32 mg/kg body weight, the rats were placed under a heat lamp to maintain a body temperature at around 37 °C, and the intestines were exposed using a midline-abdominal incision. After the bile duct was ligated, the intestines were washed with phosphate buffered saline (PBS, pH 7.4), and the remaining buffer solution was expelled with air. Enteric cannulation was performed at both ends using polyethylene tubing, and the distal parts of the small intestines were clipped by forceps. The dosing solutions (3 mL) with or without absorption enhancers kept at 37 °C, were directly introduced into the lumen of the enteric loop through a cannulated opening in the proximal part of the small enteric loop, which was then closed by clipping with another forceps. The jugular vein was exposed, and approx. 0.3 mL of blood was collected via a direct puncture into heparinized syringes at predetermined time intervals up to 240 min. The samples were immediately centrifuged at 12,000 rpm (15,000× g) for a period of 5 min to obtain the plasma fraction, which was stored on ice for further analysis. CF fluorescence signals in these plasma samples were detected after the treatment with the same volume of acetonitrile using a fluorescence spectrophotometer, Powerscan1 HT supplied by BioTek Instruments (Winooski, VT, USA) at an excitation wavelength of 485 nm and an emission wavelength of 535 nm. There was no significant background fluorescence in the plasma when the fluorescence intensities of CF were determined in this study. The peak drug concentrations (Cmax) and the time to reach the peak drug concentrations (Tmax) in the plasma were directly determined from the plasma concentration–time profiles. The area under the curve (AUC) was calculated by the trapezoidal method from pre-dose (time zero) till the administration of the final sample. The absorption enhancement ratios of CF, with or without absorption enhancers, were calculated as follows: Absorption enhancement ratio = AUCwith enhancer/AUCcontrol without enhancer

[3] = system: Caco-2 cell monolayers; experiment: Transepithelial electrical resistance (TEER) of Caco-2 cell monolayers; type: cell-based, Human
Method: Caco-2 cells (passage 45) were cultured in 175-cm^2 culture flask (Thermo Fisher Scientific™, Waltham, MA, USA). The culture medium consisted of DMEM containing 10% FBS, 0.1 mM MEM–NEAA, 2 mM glutamine, 100 U/mL penicillin, and 100 µg/mL streptomycin [30]. Cells were cultured in a humidified atmosphere of 5% CO2 at 37 °C. The culture medium was changed every two days. When the cultured Caco-2 cells became sub-confluent, they were seeded onto 12-mm Transwell® with 0.4-µm pore polycarbonate membrane inserts (Corning Inc., New York, NY, USA) at a density of 1 × 10^5 cells/insert. The transepithelial transport studies were performed when the transepithelial electrical resistance (TEER) values were more than 500 Ω·cm^2 (i.e., after 21 days). Briefly, after removing the incubation medium by aspiration, the apical and basal sides were washed thrice by Hank’s Balanced Salt (HBSS) solution (pH 7.4). The cells were incubated in HBSS (pH 6.0) for the apical side and HBSS (pH 7.4) for the basal side for 20 min at 37 °C. HBSS supplemented with 1 mg/mL glucose was used in all cell culture experiments. After removing the washing solution by aspiration, 500 µL of 10 µM CF in a HBSS (pH 6.0) solution with or without various concentrations (0.001% v/v, 0.01% v/v, 0.025% v/v, 0.05% v/v, and 0.1% v/v) of SLG-30, 0.1% (w/v) and 1% (w/v) NaGC or 0.05% (w/v) sodium laurate were added to the apical side at zero time, whereas precisely 1500 µL of HBSS (pH 7.4) was added to the basal side at 37 °C. The cells were kept at 37 °C and 5% CO2 and were continuously agitated on a shaker during the transport experiments.
The TEER values were measured by Millicell® (ERS-2 Volt-Ohm Meter, Billerica, MA, USA) at the predetermined times up to 24 h, and the initial values were considered as 100%. The samples from the basal side were withdrawn at predetermined time points up to 24 h. The samples were replaced with an equal volume of HBSS (pH 7.4). CF was determined as previously mentioned. The apparent permeability coefficients Papp (cm/s) for the transported CF was determined by the following equation: Papp=dXR/dt×1/A×1/C0 where Papp is the apparent permeability coefficient in centimeters per second, XR is the amount of CF in moles in the receptor side, dXR/dt is the flux across the monolayer, A is the diffusion area (i.e., in square centimeters), and C0 is the initial concentration of CF in the donor side in moles per milliliter.

[4] = system: Caco-2 cells; experiment: Caco-2 cell damage by LDH release; type: cell-based, Human; details: after the transport studies, n = 6
Method: After the transport studies were over, the solution on the apical side of each well was collected. Cell injury caused by SLG-30 was determined by tracking the LDH release. The cell precipitate and the monolayers left on the filters were solubilized with 1% (v/v) Triton X-100. The solutions from apical sides and the lysates were centrifuged for 7 min at 200× g at a temperature of 4 °C. The activities of LDH in the supernatant were measured. (LDHrelease) stands for the activity of the LDH released into the apical side in the existence of SLG-30. (LDHcell) stands for the activity of the LDH obtained from the cell lysate. LDHreleased% was calculated by the following equation:LDHrelease% = LDHrelease × 100/(LDHrelease + LDHcells)

[5] = system: brush-border membrane vesicles (BBMVs); experiment: Membrane fluidity of BBMVs by fluorescence polarization (fluorescence anisotropy); details: rat BBMVs, 37 °C, SLG-30 0.1-1.0% v/v, vs control, n = 4
Method: To prepare BBMVs, we followed the methods as reported previously with a slight modification. Briefly, an in situ small intestinal loop was prepared in each rat, as mentioned above, and then, PBS (pH 7.4) was administered into the loop. The fat was trimmed off from the small intestine and mesentery. Then, the whole small intestine was soaked in ice-cold PBS (pH 7.4). The small intestine was divided into 10 cm segments. Mucosa was scraped out with a slide glass from each of these segments and used for subsequent studies. BBMVs were prepared by the divalent cation precipitation method using MgCl2 in the presence of ethylenebis (oxyethylenenitrilo) tetraacetic acid (EGTA). Briefly, the collected mucosa was homogenized in a buffer containing mannitol (300 mM), EGTA (5 mM), and Tris (pH 7.4) (12 mM) by using a tissue homogenizer. An aqueous solution of 10 mM magnesium chloride was added to the homogenate. The homogenate was centrifuged at 3000× g for 15 min. The supernatant was then centrifuged at 32,000× g for 30 min. The pellet was resuspended in a buffer containing mannitol (300 mM), EGTA (5 mM), and Tris (pH 7.4) (12 mM) by using a 26-G needle. The protein concentration was determined by the BCA method using bovine serum albumin as a standard, and the final concentration was adjusted to 1 mg/ml in each Eppendorf tube. The samples were frozen by liquid nitrogen and kept at −80 °C for further studies.
The BBMVs (100 μg protein) were incubated with 1 μM DPH, with 0.5 μM tma-DPH or with 5 μM DNS-Cl in HEPES-Tris buffer (25 mM HEPES, 5.4 mM KCl, 1.8 mM CaCl2, 0.8 mM MgSO4, 140 mM NaCl, 5 mM glucose, pH 7.4 adjusted by 1 M Tris) in the dark at 37 °C for 30 min [25, 28]. Then, various concentrations (0.1% v/v, 0.25% v/v, 0.5% v/v, and 1.0% v/v) of SLG-30 were added. Then, the samples were incubated in the dark for 1 min at 37 °C. For the control group, the same procedure was carried out by adding the HEPES-Tris buffer only. The fluorescence intensities and the steady-state polarization of fluorescence expressed as the fluorescence anisotropy, r, of the labeled membrane vesicles were measured at 37 °C. The excitation and emission wavelengths were λex = 360 nm, and λem = 430 nm for DPH and tma-DPH and λex = 380 nm and λem = 480 nm for DNS-Cl. The measurements were carried out by using a Hitachi Spectrofluorometer (F-2000 Spectrofluorometer, Hitachi Seisakusho Corp, Yokohama, Japan) equipped with a polarizer set.
The fluorescence anisotropy (r) was calculated using the following equation: r=IV−IH/IV+2IH where IV and IH respectively represent the […] fluorescence intensities to the polarized excitation plane.

[6] = in situ closed loop, 0.5% (v/v) SLG-30, 0.5% (w/v) sodium laurate, 1% (w/v) sodium glycocholate

effect on the transport of CF ([1]; 0.1% (w/v) NaGC)	increase of the transport of CF vs control ([1]; 1% (w/v) NaGC)	AUC0→240 of CF higher than that of the control group ([2]; rat in situ closed loop, 0.5% (v/v) SLG-30 or 1% (w/v) NaGC)	Compound	Enhancement Ratio (AUC with enhancer/AUC control without enhancer) [2, 6]	TEER values ([3]; 0.1% (w/v) NaGC)	TEER values ([3]; 1% (w/v) NaGC)	release of LDH from Caco-2 cells vs control ([4]; 0.1% (w/v) and 1% (w/v) NaGC)	increase of the transport of CF vs control ([1]; 0.05% (w/v) sodium laurate)	Tmax of CF ([2]; plasma CF (0.5 mg/kg) given with enhancer into rat small intestine, in situ closed loop, 0.5% (v/v) SLG-30, 0.5% (w/v) sodium laurate, 1% (w/v) sodium glycocholate, mean ± S.E., n = 3)	TEER values ([3]; 0.05% (w/v) sodium laurate, without recovering to the baseline)	activity of LDH released from Caco-2 cells vs control ([4]; 0.05% (w/v) sodium laurate)	fluorescence anisotropy of tma-DPH (outer lipid bilayers) ([5]; 0.5 μM tma-DPH)	fluorescence anisotropy of DPH (inner lipid bilayers) ([5]; 1 μM DPH)	fluorescence anisotropy of DNS-Cl (protein portion) ([5]; 5 μM DNS-Cl, p < 0.01)
insignificant effect	5 times	4.5 times	C[C@H](CCC(=O)NCC(=O)[O-])[C@H]1CC[C@H]2[C@@H]3[C@H](O)C[C@@H]4C[C@H](O)CC[C@]4(C)[C@H]3C[C@H](O)[C@]12C.[Na+] [Sodium glycocholate, sodium glycocholate]	4.5	Almost no effect	significantly decreased then recovered to the baseline	Neither 0.1% (w/v) nor 1% (w/v) of NaGC increased the release of LDH	–	–	–	–	–	–	–
–	–	–	CCCCCCCCCCCC(=O)[O-].[Na+] [Sodium laurate, sodium laurate]	2.7	–	–	–	94 times	approximately 15 min	significantly reduced	significantly increased	–	–	–
–	–	–	CC(C)CCC[C@@H](C)[C@H]1CC[C@H]2[C@@H]3CC=C4C[C@@H](O)CC[C@]4(C)[C@H]3CC[C@]12C [cholesterol]	–	–	–	–	–	–	–	–	increased the fluorescence anisotropy	increased the fluorescence anisotropy	increased the fluorescence anisotropy
